Measured values taken from article PMC2746568 (Journal of medicinal chemistry, 2009).
“Also recorded” adds a separate entry of the source.

Legend:
Pf 3D7 cells = settings: read-out: EC50 against P. falciparum in whole cell assays; cited from earlier work
P. berghei = P. berghei mouse in vivo efficacy testing; parameters: species or system Plasmodium berghei in mice; settings: for ill effects from compound administration: oral 100 mg/kg/dose every 4 h × 10, then every 6 h × 6; for impact on parasite blood levels in P. berghei mouse model: oral 100 mg/kg/dose every 4 hours × 10 doses, then every 6 hours × 6 doses
[1] = Mouse pharmacokinetics after oral dosing; format: in vivo, mice; settings: for adverse reactions in plasma exposure study: single and repeat dosing; for plasma levels reached after single oral dose: uninfected mice
in vitro = settings: human, microsomes
[2] = In vitro human microsomal metabolism; settings: for Predicted EH (hepatic extraction ratio): estimated from measured rate of degradation in vitro; for Predicted EH (hepatic extraction ratio) / microsomal CLint at 1 µM: human; for microsomal CLint at 1 µM: pooled human liver microsomes; for Putative metabolites: human liver microsomes, LC/MS
PbDHODH = PbDHODH (Plasmodium berghei, UniProt A0A509AEH5); experiment: PbDHODH steady-state inhibition assay; format: biochemical; settings: PbDHODH vs PfDHODH
PfDHODH = PfDHODH (Plasmodium falciparum, UniProt Q08210); settings: unsubstituted phenyl; cited from earlier work
Chain of PfDHODH (Q08210 158-569): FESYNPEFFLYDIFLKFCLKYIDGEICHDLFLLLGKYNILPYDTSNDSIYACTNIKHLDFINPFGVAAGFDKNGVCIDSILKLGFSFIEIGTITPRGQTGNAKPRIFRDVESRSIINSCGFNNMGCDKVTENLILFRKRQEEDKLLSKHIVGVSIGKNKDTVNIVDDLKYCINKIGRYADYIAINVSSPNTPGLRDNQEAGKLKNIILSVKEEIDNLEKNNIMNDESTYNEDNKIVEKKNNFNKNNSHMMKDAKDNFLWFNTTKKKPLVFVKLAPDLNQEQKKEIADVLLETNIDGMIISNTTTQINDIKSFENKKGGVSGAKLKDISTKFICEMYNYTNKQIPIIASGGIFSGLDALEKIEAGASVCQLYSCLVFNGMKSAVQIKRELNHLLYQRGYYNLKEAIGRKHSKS

Cc1cc(Nc2ccc3ccccc3c2)n2ncnc2n1 [Compound 2, (5-methyl-[1,2,4]triazolo[1,5-a]pyrimidin-7-yl)-naphthalen-2-yl-amine]
EC50 (Pf 3D7 cells): 80 nM
ill effects from compound administration (P. berghei; infected mice): no major ill effects
impact on parasite blood levels in P. berghei mouse model (P. berghei; 100 mg/kg): no activity; also recorded: neither compound had any impact
plasma levels at 240 min on day 4 of repeat dosing ([1]; mice, 50 mg/kg oral 1x daily repeat dosing): nearly undetectable
adverse reactions in plasma exposure study ([1]; mice, 50 mg/kg oral): No adverse reactions
plasma levels reached after single oral dose ([1]; 50 mg/kg oral single dose): 2000 to 3000 nM
microsomal CLint (in vitro): 96 µL/min/mg

Cc1cc(Nc2ccc3cc4ccccc4cc3c2)n2ncnc2n1 [Compound 3, (5-Methyl-[1,2,4]triazolo[1,5-a]pyrimidin-7-yl)-anthracen-2-yl-amine]
ill effects from compound administration (P. berghei; infected mice): no major ill effects
impact on parasite blood levels in P. berghei mouse model (P. berghei): neither compound had any impact
plasma concentrations after last dose of repeat dosing relative to single dose ([1]; mice, 50 mg/kg oral for 2 to 4 days): significantly reduced
plasma concentrations maintained over 240 min ([1]; mice, 50 mg/kg oral single dose): 1000 to 3000 nM
observed plasma levels ([1]; mice, 50 mg/kg oral, repeat dosing): ~ 1 µM
adverse reactions in plasma exposure study ([1]; mice, 50 mg/kg oral): No adverse reactions
plasma levels reached after single oral dose ([1]; 50 mg/kg oral single dose): 2000 to 3000 nM
Predicted EH (hepatic extraction ratio) [2]: 0.70
microsomal CLint at 1 µM [2]: 37 µL/min/mg
IC50 fold higher for PbDHODH than for PfDHODH (PbDHODH): 66 fold

Cc1cc(Nc2ccccc2)n2ncnc2n1 [Compound 4]
activity (in words) (PfDHODH): completely inactive

Cc1cc(Nc2cccc(F)c2)n2ncnc2n1 [Compound 13, (3-Fluoro-phenyl)-(5-methyl-[1,2,4]triazolo[1,5-a]pyrimidin-7-yl)-amine]
Predicted EH (hepatic extraction ratio) [2]: 0.50
microsomal CLint at 1 µM [2]: 18 µL/min/mg

Cc1cc(Nc2cccc(Cl)c2)n2ncnc2n1 [Compound 14, (3-Chloro-phenyl)-(5-methyl-[1,2,4]triazolo[1,5-a]pyrimidin-7-yl)-amine]
microsomal CLint (in vitro): 38 µL/min/mg

Cc1cc(Nc2cccc(C(F)(F)F)c2)n2ncnc2n1 [Compound 16, (5-Methyl-[1,2,4]triazolo[1,5-a]pyrimidin-7-yl)-(3-trifluoromethyl-phenyl)-amine]
Predicted EH (hepatic extraction ratio) [2]: 0.62
microsomal CLint at 1 µM [2]: 29 µL/min/mg

Cc1cc(Nc2ccc(C(F)(F)F)cc2)n2ncnc2n1 [Compound 21, (5-Methyl-[1,2,4]triazolo[1,5-a]pyrimidin-7-yl)-(4-trifluoromethyl-phenyl)-amine]
adverse reactions in efficacy study (P. berghei; infected mice, 50 mg/kg oral q.d. or b.i.d. for 4 days): No adverse reactions
time plasma concentrations maintained above 1 µM (0.29 µg/mL) ([1]; mice, single oral dose 50 mg/kg): 16 h
adverse reactions after oral administration ([1]; mice, single oral dose 20 or 50 mg/kg): No adverse reactions
microsomal CLint (in vitro): 7.5 µL/min/mg

Cc1cc(Nc2ccc(F)c(C)c2)n2ncnc2n1 [Compound 40, (4-Fluoro-3-methyl-phenyl)-(5-methyl-[1,2,4]triazolo[1,5-a]pyrimidin-7-yl)-amine]
Predicted EH (hepatic extraction ratio) [2]: 0.64
microsomal CLint at 1 µM [2]: 31 µL/min/mg

Cc1cc(Nc2ccc(Cl)c(C(F)(F)F)c2)n2ncnc2n1 [Compound 41, (4-Chloro-3-trifluoromethyl-phenyl)-(5-methyl-[1,2,4]triazolo[1,5-a]pyrimidin-7-yl)-amine]
Predicted EH (hepatic extraction ratio) [2]: 0.42
microsomal CLint at 1 µM [2]: 13 µL/min/mg

Cc1cc(Nc2ccc(Br)c(C(F)(F)F)c2)n2ncnc2n1 [Compound 42, (4-Bromo-3-trifluoromethyl-phenyl)-(5-methyl-[1,2,4]triazolo[1,5-a]pyrimidin-7-yl)-amine]
Predicted EH (hepatic extraction ratio) [2]: 0.43
microsomal CLint at 1 µM [2]: 14 µL/min/mg

Cc1cc(Nc2ccc(C#N)c(C(F)(F)F)c2)n2ncnc2n1 [Compound 45, 4-(5-Methyl-[1,2,4]triazolo[1,5-a]pyrimidin-7-ylamino)-2-trifluoromethyl-benzonitrile]
Putative metabolites [2]: no metabolites were detected; also recorded: None detected

Cc1cc(Nc2ccc(C(F)(F)F)c(F)c2)n2ncnc2n1 [Compound 47, (3-Fluoro-4-trifluoromethyl-phenyl)-(5-methyl-[1,2,4]triazolo[1,5-a]pyrimidin-7-yl)-amine]
Putative metabolites [2]: no metabolites were detected; also recorded: None detected
